These results are taken from patent US5786364A, “Bicyclic isothiourea derivatives useful in therapy” (priority 1995, dated 1998).

What all share (assay type): biochemical
Experiment [1] has as its target T1, neuronal nitric oxide synthase (Rattus norvegicus, UniProt P29476).
T1 construct: Enzyme was isolated from rat hippocampus or cerebellum; from tissue; host or cells: hippocampus or cerebellum of male Sprague-Dawley rat, 20,000 g supernatant
The experiment can be described thus: Screen A: screen for neuronal nitric oxide synthase inhibiting activity (conversion of 3H-L-arginine to 3H-L-citrulline).
Method: (§1) Nitric oxide synthase converts ^3 H-L-arginine to ^3 H-L-citrulline which can be separated by cation exchange chromatography and quantified by scintillation counting.
(A) Screen for neuronal nitric oxide synthase inhibiting activity
Enzyme was isolated from rat hippocampus or cerebellum. The cerebellum or hippocampus of a male Sprague-Dawley rat (250-275 g) is removed following CO2 anaesthesia of the animal and decapitation. Cerebellar or hippocampal supernatant is prepared by homogenisation in 50 mM Tris-HCl with 1 mM EDTA buffer (pH 7.2 at 25° C.) and centifugation for 15 minutes at 20,000 g. Residual L-arginine is removed from the supernatant by chromatography through Dowex AG-50W-X8 sodium form and hydrogen form columns successively, and further centrifugation at 1000 g for 30 seconds.
For the assay, 25 μl of the final supernatant is added to each of 96 wells (of a 96 well filter plate) containing 25 μl L-arginine solution (of concentration 18 μM ^1 H-L-arginine, 96 nM ^3 H-L-arginine)and either 25 μl of an assay buffer (50 mM HEPES, 1 mM EDTA, 1.5 mM CaCl2, pH 7.4) or 25 μl of test compound in the buffer at 22° C. To each test tube is added 25 μl of complete assay buffer (50 mM HEPES, 1 mM EDTA, 1.5 mM CaCl2, 1 mM DTT, 100 μM NADPH, 10 μg/ml calmodulin, pH 7.4) to initiate the reaction and the reaction is stopped after 10 minutes by addition of 200 μl of a slurry of termination buffer (20 mM HEPES, 2 mM EDTA, pH 5.5) and Dowex AG-50W-X8 200-400 mesh.
Labelled L-citrulline is separated from labelled L-arginine by filtering each filter plate and 75 ul of each terminated reaction is added to 3 ml of scintillation cocktail. The L-citrulline is then quantified by scintillation counting.
IC50 values for test compounds were initially estimated from the inhibiting activity of 1, 10 and 100 μM solutions of the compounds.

Experiment [2] addresses T2, endothelial nitric oxide synthase (Homo sapiens, UniProt P29474).
T2 construct: Enzyme may be isolated from human umbilical vein endothelial cells (HUVECs); host or cells: human umbilical vein endothelial cells (HUVECs)
In words: Screen C: screen for endothelial nitric oxide synthase inhibiting activity (HUVEC enzyme).
From the text: as §1
(C) Screen for endothelial nitric oxide synthase inhibiting activity
HUVECs were purchased from Clonetics Corp (San Diego, Calif., U.S.A.) and cultured to confluency. Cells can be maintained to passage 35-40 without significant loss of yield of nitric oxide synthase. When cells reach confluency, they are resuspended in Dulbecco's phosphate buffered saline, centrifuged at 800 rpm for 10 mins, the cell pellet homogenised in ice-cold 50 mM Tris-HCl, 1 mM EDTA, 10% glycerol, 1 mM phenylmethylsulphonylfluoride, 2 μM leupeptin at pH 4.2. Following centrifugation at 34,000 rpm for 60 mins, the pellet is solubilised in the homogenisation buffer which also contains 20 mM CHAPS. After a 30 min incubation on ice, the suspension is centrifuged at 34,000 rpm for 30 mins. The resulting supernatant is stored at -80° C. until use. […]
Labelled L-citrulline is separated from labelled L-arginine by filtration into another 96 well plate and 75 ul of each terminated reaction is added to 3 ml of scintillation cocktail. The L-citrulline is then quantified by scintillation counting. […]

Experiment [3] addresses T3, inducible nitric oxide synthase (Homo sapiens, UniProt P35228).
T3 construct: Enzyme is prepared, after induction, from the cultured human colorectal carcinoma cell line, DLD-1; endogenous in cells; host or cells: DLD-1 cells (European Collection of Animal Cell Cultures), induced with IL-1, IFN-gamma, IL-6 and TNF-alpha; cell lysate
In words: Screen B: screen for inducible nitric oxide synthase inhibiting activity (DLD-1 cell lysate).
Method: as §1
(B) Screen for inducible nitric oxide synthase inhibiting activity
Enzyme is prepared, after induction, from the cultured human colorectal carcinoma cell line, DLD-1 (obtained from the European Collection of Animal Cell Cultures) DLD-1 cells are cultured in RPMI 1640 media supplemented with 10% foetal bovine serum, 4 mM L-glutamine and antibiotics (100 units/ml penicillin G, 100 μg/ml streptomycin & 0.25 μg/ml amphotericin B) and 100 ug/ml kanamycin. Cells are routinely grown in 225 cm^3 flasks containing 35 ml medium kept at 37° C. and in a humidified atmosphere containing 5% CO2.
Nitric oxide synthase is produced by cells in response to interferon-about 250 U/ml IL-1, 1000 U/ml IFNγ, 200 U/ml IL-6, and 200 U/ml TNF-alpha. After a period of 17-20 hours in culture, harvesting of cells is accomplished by scraping the cell sheet from the flask surface into the culture medium. […]
Labelled L-citrulline is separated from labelled L-arginine using Dowex AG-50W. […] After allowing the samples to dry the L-citrulline is quantified by scintillation counting. […]

Where two headings read alike, the source gives them in different places.

T1 sequence (P29476 whole entry): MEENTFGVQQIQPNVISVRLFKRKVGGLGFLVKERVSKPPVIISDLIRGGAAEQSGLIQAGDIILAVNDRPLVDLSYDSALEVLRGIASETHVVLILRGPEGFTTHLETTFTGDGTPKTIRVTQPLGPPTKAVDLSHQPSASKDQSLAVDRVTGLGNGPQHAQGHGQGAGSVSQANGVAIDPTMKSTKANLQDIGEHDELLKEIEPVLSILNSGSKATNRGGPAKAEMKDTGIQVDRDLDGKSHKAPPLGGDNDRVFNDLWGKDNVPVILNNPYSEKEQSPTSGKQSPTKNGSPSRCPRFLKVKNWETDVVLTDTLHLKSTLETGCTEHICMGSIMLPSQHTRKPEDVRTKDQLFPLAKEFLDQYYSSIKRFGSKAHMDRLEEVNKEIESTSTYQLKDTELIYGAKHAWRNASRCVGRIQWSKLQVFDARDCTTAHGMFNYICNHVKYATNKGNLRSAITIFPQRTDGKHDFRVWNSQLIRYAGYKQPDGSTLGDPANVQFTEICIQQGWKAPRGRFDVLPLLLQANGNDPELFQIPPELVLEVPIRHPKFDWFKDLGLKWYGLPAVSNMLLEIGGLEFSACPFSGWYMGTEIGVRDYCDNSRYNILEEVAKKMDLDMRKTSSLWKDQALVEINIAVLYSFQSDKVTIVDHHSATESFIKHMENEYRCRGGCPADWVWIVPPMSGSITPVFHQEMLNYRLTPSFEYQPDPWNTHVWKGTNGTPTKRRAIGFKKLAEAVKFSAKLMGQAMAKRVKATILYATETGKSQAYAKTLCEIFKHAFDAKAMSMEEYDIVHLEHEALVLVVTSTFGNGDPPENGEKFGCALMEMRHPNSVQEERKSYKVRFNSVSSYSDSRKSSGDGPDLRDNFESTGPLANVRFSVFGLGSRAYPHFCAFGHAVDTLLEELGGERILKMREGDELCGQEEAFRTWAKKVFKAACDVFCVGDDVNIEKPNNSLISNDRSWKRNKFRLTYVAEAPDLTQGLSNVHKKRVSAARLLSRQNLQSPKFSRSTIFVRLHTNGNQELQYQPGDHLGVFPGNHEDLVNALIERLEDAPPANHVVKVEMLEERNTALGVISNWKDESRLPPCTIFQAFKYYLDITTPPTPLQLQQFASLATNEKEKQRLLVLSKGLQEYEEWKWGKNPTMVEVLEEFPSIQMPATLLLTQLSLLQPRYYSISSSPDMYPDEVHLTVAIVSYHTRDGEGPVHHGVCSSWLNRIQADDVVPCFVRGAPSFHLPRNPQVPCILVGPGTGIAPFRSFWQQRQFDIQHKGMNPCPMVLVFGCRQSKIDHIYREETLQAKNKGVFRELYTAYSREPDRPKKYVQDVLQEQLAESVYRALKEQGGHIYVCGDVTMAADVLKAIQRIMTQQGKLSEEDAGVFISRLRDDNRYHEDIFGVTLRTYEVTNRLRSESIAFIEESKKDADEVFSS
T2 sequence (P29474 2-1203): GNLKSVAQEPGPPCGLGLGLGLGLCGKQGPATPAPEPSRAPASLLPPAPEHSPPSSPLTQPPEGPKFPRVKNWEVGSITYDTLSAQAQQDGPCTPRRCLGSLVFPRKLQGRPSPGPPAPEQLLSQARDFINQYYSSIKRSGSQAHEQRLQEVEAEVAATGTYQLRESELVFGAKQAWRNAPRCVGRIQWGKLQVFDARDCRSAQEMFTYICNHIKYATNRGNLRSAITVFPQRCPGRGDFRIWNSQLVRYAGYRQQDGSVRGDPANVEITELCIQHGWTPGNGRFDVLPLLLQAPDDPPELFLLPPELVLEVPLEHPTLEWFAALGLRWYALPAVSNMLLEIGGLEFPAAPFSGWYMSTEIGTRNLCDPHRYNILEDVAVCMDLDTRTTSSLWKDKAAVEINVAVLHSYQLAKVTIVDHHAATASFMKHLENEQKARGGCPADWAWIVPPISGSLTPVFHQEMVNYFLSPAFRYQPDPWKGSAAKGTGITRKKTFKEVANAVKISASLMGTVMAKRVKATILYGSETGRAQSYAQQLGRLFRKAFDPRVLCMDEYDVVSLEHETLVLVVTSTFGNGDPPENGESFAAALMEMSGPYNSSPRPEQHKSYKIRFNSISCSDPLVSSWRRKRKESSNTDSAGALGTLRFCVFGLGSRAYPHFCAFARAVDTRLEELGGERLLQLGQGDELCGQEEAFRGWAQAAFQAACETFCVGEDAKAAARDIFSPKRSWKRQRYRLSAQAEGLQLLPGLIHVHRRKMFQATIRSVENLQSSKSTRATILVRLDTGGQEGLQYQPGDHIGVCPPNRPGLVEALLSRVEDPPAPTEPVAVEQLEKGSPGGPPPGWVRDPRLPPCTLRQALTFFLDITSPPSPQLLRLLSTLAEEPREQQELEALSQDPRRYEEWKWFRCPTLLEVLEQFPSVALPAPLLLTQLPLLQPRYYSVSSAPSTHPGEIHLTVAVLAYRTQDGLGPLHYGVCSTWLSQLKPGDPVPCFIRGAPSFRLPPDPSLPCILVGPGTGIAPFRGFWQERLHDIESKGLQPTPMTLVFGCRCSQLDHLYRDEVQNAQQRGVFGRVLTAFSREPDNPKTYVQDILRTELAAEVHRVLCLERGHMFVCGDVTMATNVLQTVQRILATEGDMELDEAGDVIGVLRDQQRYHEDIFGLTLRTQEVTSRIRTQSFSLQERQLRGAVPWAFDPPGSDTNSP

On to `CCSC(=N)Nc1ccc2c(c1)CC(N(C)Cc1cccc(Cl)c1)C2` (stereo not shown) [Example 2, N-5-(2-(((3-chlorophenyl)methyl)(methyl)amino)indanyl)carbamimidothioic acid, ethyl ester], for which, in experiment [1] (neuronal isoform, rat hippocampus or cerebellum supernatant, read-out: IC50 (Screen A)), the IC50 is below 10 µM.

Consider `NC(=NCCC[C@H](N)C(=O)O)N[N+](=O)[O-]` [N-nitro-L-arginine, reference compound], for which the inhibition at 1 µM was 80% in experiment [1] (at a concentration of 1 μM, cerebellar supernatant, typical experiment, read-out: inhibition of nitric oxide synthase (Screen A reference standard)) and 70 to 90% in experiment [2] (at a concentration of 1 μM, typical experiment, read-out: inhibition of nitric oxide synthase (Screen C reference standard)).

In the case of `CCSC(=N)Nc1ccc2c(c1)CNCC2` [Example 1, N-(1,2,3,4-tetrahydroisoquinolin-7-yl)carbamimidothioic acid ethyl ester], the “IC50 in Screen B relative to that obtained in Screen A (selectivity)” value in experiment [3] (Screen B (macrophage isoform) IC50 / Screen A (neuronal) IC50) is on record as “more than 10 times”. The molecule further displayed an IC50 in experiment [1] below 10 µM. Further, the “IC50 in Screen C relative to that obtained in Screen A (selectivity)” value in experiment [2] (Screen C (endothelial isoform) IC50 / Screen A (neuronal) IC50) was “more than 10 times”.

Take `N=C(N)NN` [Aminoguanidine, reference compound]: in experiment [3] (inducible isoform, DLD-1 cell lysate, standard to verify the procedure, read-out: IC50 (50% inhibitory concentration) (Screen B standard)), the IC50 stood at 10 µM.

Usually inhibition stands for how much of the control response was suppressed.
